Laboratory results taken from patent US20180320177A1, “COMPOSITIONS AND METHODS FOR THE TREATMENT OF LIVER FIBROSIS” (UNIVERSITY OF CONNECTICUT, priority 2015, published 2018).

What was measured:
HMGB1 and HMGB2 = conditions: neuroinflammation model; cited from earlier work
[1] = tested on: pAKT and pERK1/2 activation; assay: pAKT and pERK1/2 activation and HMGB2 protein in primary stellate cells; type: cell-based, mouse; conditions: stellate cells (FIG. 6E)
Experimental: Western Blotting: Total protein lysates were prepared from livers and cells in lysis buffer containing 50 mM Tris, pH 8.0, 1% Nonidet™ P-40, 150 mM NaCl, 0.5% sodium deoxycholate, 0.1% SDS with protease inhibitors (Thermo Fisher Scientific) and subjected to immunoblotting. Nuclear and cytoplasmic subcellular fractions were prepared using NE-PER nuclear and cytoplasmic extraction reagents (Pierce) according to the manufacturer's instructions. The blot was incubated with a primary antibody, followed by a secondary antibody conjugated to horseradish peroxidase. ECL kit (Pierce) was used to detect the reactivity. The following antibodies were obtained from Cell Signaling Technology: HMGB2, HMGB1, AKT, p-AKT, mTOR, p-mTOR, ERK1/2, pERK1/2, Raptor, Rictor, p53, p21, p-Bad, Smad4, p-Smad2/3, Lamin A/C, a-SMA, MMP2, MMP9, TIMP1, RhoA, Rho-GTP, Cdc42, Rac1/2/3. Anti-HA antibody and anti-beta actin antibody were purchased from Sigma and Santa Cruz Biotechnology, respectively.
Primary Mouse Hepatic Stellate Cells (HSCs) isolation and in vitro activation: Primary mouse HSCs were isolated from 8 to 12 weeks old wild type or Hmgb2^−/− mice, as described in the art with modifications. Briefly, mice were anesthetized with ketamine/xylazine mixture. The liver was perfused with Hank's balanced salt solution (HBSS) supplemented with 0.5 mM EGTA through the cannulated portal vein, followed by perfusion with HBSS supplemented with 0.5 mg/ml pronase (Sigma) and HBSS with 0.14 mg/ml collagenase (Sigma). The liver was dissected out from the mouse and dissociated cells were dispersed gently in HBSS. Primary HSC was isolated by three-layer discontinuous density gradient centrifugation with 25% and 50% percoll (Sigma) and plated on non-coated culture dishes in DMEM supplemented with 10% FBS, 100 IU/ml penicillin, and 100 μg/ml streptomycin. For culture-activated HSC studies, the medium of primary HSCs was replaced every day up to 7 days. For PDGF treatment, primary HSC cells were serum starved for 24 hr and then treated with PDFG for 3 or 5 days. […]

CC1(C)Oc2cc(O)ccc2C2C1=CCn1c(=O)n(-c3ccccc3)c(=O)n12 (stereo not shown) [ICM, inflachromene]
inhibitor profile HMGB1 / HMGB2 (HMGB1 and HMGB2): dual inhibitor of both HMGB1 and HMGB2
HMGB2 protein [1]: reduces
pAKR activation [1]: reduces
pERk1/2 activation [1]: reduces
